In patent US11197878B2, “Anti-inflammatory composition including novel quercetin-based compound” (AMOREPACIFIC CORPORATION, priority 2017, dated 2021):

What was measured:
Type in all cases: cell-based
Conditions in all cases: fibroblast culture medium; H2O2 500 μM 24 hours, then test material (31, 32: 100 μg/ml) 48 hours; ELISA
[1] = test system: IL-6 (Interleukin 6); experiment: Test for inhibiting generation of IL-6 in H2O2-stimulated fibroblast (ELISA)
Protocol: (§1) Fibroblast (PromoCell, Germany) was inoculated in a 6-well culturing plate at a concentration of 1×10^5 cells, and cultured in a 5% CO2 incubator at 37° C. for 24 hours. The well was treated with H2O2 500 μM and stimulated for 24 hours, and then were treated with quercetin3-O-[3-O″-(E)-p-coumaroyl][β-D-glucopyranosyl-(1→3)-O-α-L-rhamnopyranosyl-(1→6)-O-β-D-glucopyranoside] (‘New Material 31’) and quercetin3-O-[3-O″-(E)-p-coumaroyl][α-L-rhamnopyranosyl-(1→6)-O-β-D-glucopyranoside]) (‘New Material 32’) at a concentration of 100 μg/ml, respectively, and reacted for 48 hours. After the reaction was finished, the culture medium was collected and the ELISA analysis was performed. Herein, α-bisabolol, which is the material typically used as an anti-inflammatory agent and abirritant, was used as a control. As PGE2, a kit of Assay Design® was used, and as IL-6 and IL-8, a kit of Endogen® was used, and the test was carried out according to the methods prescribed in the manuals of the respective companies. (‘31’ refers to New Material 31, and ‘32’ refers to New Material 32) Inhibition effect={1−(test sample−control)/(H2O2−control)}×100 <Equation 1>

[2] = test system: PGE2 (Prostaglandin E2); experiment: Test for inhibiting generation of PGE2 in H2O2-stimulated fibroblast (ELISA)
Protocol: as §1

[3] = test system: IL-8 (Interleukin 8); experiment: Test for inhibiting generation of IL-8 in H2O2-stimulated fibroblast (ELISA)
Protocol: as §1

“α-bisabolol [a-bisabolol, reference compound]” showed an IL-6 [1] of 180 pg/mL, a PGE2 [2] of 205 pg/mL and an IL-8 [3] of 200 pg/mL.
